Results: US20090209577A1, “Novel Triazolopyridine Compounds” (PFIZER INC., priority 2004, published 2009)
Structures can show the parent of a compound that is named as a salt.

Target: T1, human p38 kinase alpha (Homo sapiens, UniProt Q16539)
T1 construct: The coding region of the human p38a cDNA was obtained by PCR-amplification from RNA isolated from the human monocyte cell line THP.1; made in house; host or cells: E. coli DH10B
Experiment: p38 kinase in vitro assay (PHAS-I / 32P-ATP format or EGFRP / 33P-ATP format)
Assay type: biochemical
Conditions: activated human p38 kinase alpha, 50 μM unlabeled ATP; two assay formats, table does not say which
Procedure: The ability of compounds to inhibit human p38 kinase alpha was evaluated using two in vitro assay methods. In the first method, activated human p38 kinase alpha phosphorylates a biotinylated substrate, PHAS-I (phosphorylated heat and acid stable protein-insulin inducible), in the presence of gamma ^32P-ATP (^32P-ATP). PHAS-I was biotinylated prior to the assay and provides a means of capturing the substrate, which is phosphorylated during the assay. p38 Kinase was activated by MKK6. Compounds were tested in 10 fold serial dilutions over the range of 100 μM to 0.001 μM using 1% DMSO. Each concentration of inhibitor was tested in triplicate.
All reactions were carried out in 96 well polypropylene plates. Each reaction well contained 25 mM HEPES pH 7.5, 10 mM magnesium acetate and 50 μM unlabeled ATP. Activation of p38 was required to achieve sufficient signal in the assay. Biotinylated PHAS-1 was used at 1-2 μg per 50 μl reaction volume, with a final concentration of 1.5 μM. Activated human p38 kinase alpha was used at 1 μg per 50 μl reaction volume representing a final concentration of 0.3 μM. Gamma ^32P-ATP was used to follow the phosphorylation of PHAS-1. ^32P-ATP has a specific activity of 3000 Ci/mmol and was used at 1.2 μCi per 50 μl reaction volume. The reaction proceeded either for one hour or overnight at 30° C.
Following incubation, 20 μl of reaction mixture was transferred to a high capacity streptavidin coated filter plate (SAM-streptavidin-matrix, Promega) prewetted with phosphate buffered saline. The transferred reaction mix was allowed to contact the streptavidin membrane of the Promega plate for 1-2 minutes. Following capture of biotinylated PHAS-1 with ^32P incorporated, each well was washed to remove unincorporated ^32P-ATP three times with 2M NaCl, three washes of 2M NaCl with 1% phosphoric, three washes of distilled water and finally a single wash of 95% ethanol. Filter plates were air-dried and 20 μl of scintillant was added. The plates were sealed and counted.
A second assay format was also employed that is based on p38 kinase alpha induced phosphorylation of EGFRP (epidermal growth factor receptor peptide, a 21 mer) in the presence ^33P-ATP. Compounds were tested in 10 fold serial dilutions over the range of 100 μM to 0.001 μM in 1% DMSO. Each concentration of inhibitor was tested in triplicate. Compounds were evaluated in 50 μl reaction volumes in the presence of 25 mM Hepes pH 7.5, 10 mM magnesium acetate, 4% glycerol, 0.4% bovine serum albumin, 0.4 mM DTT, 50 μM unlabeled ATP, 25 μg EGFRP (200 μM), and 0.05 μCi ^33P-ATP. Reactions were initiated by addition of 0.09 μg of activated, purified human GST-p38 kinase alpha. Activation was carried out using GST-MKK6 (5:1, p38:MKK6) for one hour at 30° C. in the presence of 50 μM ATP. Following incubation for 60 minutes at room temperature, the reaction was stopped by addition of 150 μl of AG 1×8 resin in 900 mM sodium formate buffer, pH 3.0 (1 volume resin to 2 volumes buffer). The mixture was mixed three times with pipetting and the resin was allowed to settle. A total of 50 μl of clarified solution head volume was transferred from the reaction wells to Microlite-2 plates. 150 μl of Microscint 40 was then added to each well of the Microlite plate, and the plate was sealed, mixed, and counted.
The above protocol assays were used to determine the IC50 values for compounds in Examples 1-71 above.

T1 sequence (Q16539 whole entry): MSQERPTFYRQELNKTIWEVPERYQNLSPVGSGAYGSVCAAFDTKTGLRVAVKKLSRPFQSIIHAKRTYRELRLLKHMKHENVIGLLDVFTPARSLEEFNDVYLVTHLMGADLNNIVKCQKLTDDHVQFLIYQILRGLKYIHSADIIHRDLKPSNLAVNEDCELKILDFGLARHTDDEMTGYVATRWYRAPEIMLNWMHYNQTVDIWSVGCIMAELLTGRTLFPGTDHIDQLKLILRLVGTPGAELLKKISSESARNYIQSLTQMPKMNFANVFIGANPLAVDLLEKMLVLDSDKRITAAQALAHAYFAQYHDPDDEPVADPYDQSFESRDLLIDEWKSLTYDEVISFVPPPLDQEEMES

Row | IC50 [nM] | SMILES
1 | 8240 | CC(C)c1nnc2ccc(Sc3c(Cl)cc(Cl)cc3Cl)cn12 [Example 55, 3-isopropyl-6-[(2,4,6-trichlorophenyl)thio][1,2,4]triazolo[4,3-a]pyridine hydrochloride]
2 | 2710 | Cc1ccc(C(=O)O)cc1-c1nnc2ccc(CCc3ccc(F)cc3F)cn12 [Example 21, 3-{6-[2-(2,4-difluorophenyl)ethyl][1,2,4]triazolo[4,3-a]pyridin-3-yl}-4-methylbenzoic acid]
3 | 13300 | Fc1cccc(F)c1-c1nnc2ccc(Br)cn12 [Example 40, 6-bromo-3-(2,6-difluorophenyl)[1,2,4]triazolo[4,3-a]pyridine]
4 | 101 | Cc1c(Sc2ccc(F)cc2F)ccc2nnc(C(C)C)n12 [Example 38, 6-[(2,4-difluorophenyl)thio]-3-isopropyl-5-methyl[1,2,4]triazolo[4,3-a]pyridine]
5 | 181 | COC(=O)c1cccc(-c2nnc3ccc(Sc4ccc(F)cc4F)cn23)c1 [Example 64A, methyl 3-{6-[(2,4-difluorophenyl)thio][1,2,4]triazolo[4,3-a]pyridin-3-yl}benzoate]
6 | 293 | CNC(=O)c1ccc(-c2nnc3ccc(Sc4ccc(F)cc4F)cn23)cc1 [Example 24, 4-{6-[(2,4-difluorophenyl)thio][1,2,4]triazolo[4,3-a]pyridin-3-yl}-N-methylbenzamide]
7 | > 100000 | CC(C)c1nnc2ccc(-c3cnn(Cc4ccccc4)c3)cn12 [Example 7, 6-(1-benzyl-1H-pyrazol-4-yl)-3-isopropyl[1,2,4]triazolo[4,3-a]pyridine]
8 | 17.3 | COC(=O)c1ccc(C)c(-c2nnc3ccc(/C=C/c4ccc(F)cc4F)cn23)c1 [Example 16, methyl 3-{6-[(E)-2-(2,4-difluorophenyl)vinyl][1,2,4]triazolo[4,3-a]pyridin-3-yl}-4-methylbenzoate]
9 | 7550 | Cc1ccc(C(=O)O)cc1-c1nnc2n1CC(CCc1ccc(F)cc1F)CC2 (racemic) [Example 19, racemic 3-{6-[2-(2,4-difluorophenyl)ethyl]-5,6,7,8-tetrahydro[1,2,4]triazolo[4,3-a]pyridin-3-yl}-4-methylbenzoic acid]
10 | 141 | Cc1cc(Br)ccc1-c1nnc2ccc(Sc3ccc(F)cc3F)cn12 [45 (step 2), 3 (4-bromo-2-methylphenyl)-6-[(2,4-difluorophenyl)thio][1,2,4]triazolo[4,3-a]pyridine hydrochloride]
11 | 106 | C=Cc1ccc(-c2nnc3ccc(Sc4ccc(F)cc4F)cn23)c(C)c1 [45 (step 3), 6-[(2,4-difluorophenyl)thio]-3-(2-methyl-4-vinylphenyl)[1,2,4]triazolo[4,3-a]pyridine hydrochloride]
12 | 26.1 | CC(C)c1nnc2ccc(Cc3ccc(F)cc3F)cn12 [8 (step 1), 6-(2,4-difluorobenzyl)-3-isopropyl[1,2,4]triazolo[4,3-a]pyridine]
13 | 1270 | Cc1ccc(C(N)=O)cc1-c1nnc2n1CC(CCc1ccc(F)cc1F)CC2 (racemic) [Example 20, racemic 3-{6-[2-(2,4-difluorophenyl)ethyl]-5,6,7,8-tetrahydro[1,2,4]triazolo[4,3-a]pyridin-3-yl}-4-methylbenzamide]
14 | 20.5 | Cc1ccc(C(=O)NCCO)cc1-c1nnc2ccc(Sc3ccc(F)cc3F)cn12 [Example 43, 3-{6-[(2,4-difluorophenyl)thio][1,2,4]triazolo[4,3-a]pyridin-3-yl}-N-(2-hydroxyethyl)-4-methylbenzamide]
15 | 699 | CC(C)c1nnc2ccc(Cc3ccccc3F)cn12 [Example 67, 6-(2-fluorobenzyl)-3-isopropyl[1,2,4]triazolo[4,3-a]pyridine]
16 | 2920 | Cc1ccc(C(=O)O)cc1-c1nnc2ccc(Sc3ccc(F)cc3F)cn12 [41 (step 4), 3-{6-[(2,4-difluorophenyl)thio][1,2,4]triazolo[4,3-a]pyridin-3-yl}-4-methylbenzoic acid hydrochloride]
17 | 889 | CC(C)c1nnc2cc(Cl)c(Sc3ccc(F)cc3F)cn12 [Example 35, 7-chloro-6-[(2,4-difluorophenyl)thio]-3-isopropyl[1,2,4]triazolo[4,3-a]pyridine hydrochloride]

Row | IC50 [nM] | SMILES
18 | 2290 | C=Cc1ccc(-c2nnc3ccc(Cc4ccc(F)cc4F)cn23)cc1 [62 (step 2), 6-(2,4-difluorobenzyl)-3-(4-vinylphenyl)[1,2,4]triazolo[4,3-a]pyridine]
19 | 79.3 | CC(C)c1nnc2ccc(Sc3ccc(F)cc3F)cn12 [34 (step 1), 6-[(2,4-difluorophenyl)thio]-3-isopropyl[1,2,4]triazolo[4,3-a]pyridine hydrochloride]
20 | 39.9 | CNC(=O)c1ccc(C)c(-c2nnc3ccc(Sc4ccc(F)cc4F)cn23)c1 [Example 49, 3-{6-[(2,4-difluorophenyl)thio][1,2,4]triazolo[4,3-a]pyridin-3-yl}-N,4-dimethylbenzamide]
21 | > 100000 | CC(C)c1nnc2ccc(S(=O)(=O)c3ccc(F)cc3F)cn12 [Example 61, 6-[(2,4-difluorophenyl)sulfonyl]-3-isopropyl[1,2,4]triazolo[4,3-a]pyridine]
22 | 9680 | CC(C)c1nnc2ccc([S+]([O-])c3ccc(F)cc3F)cn12 (stereo not drawn) [Example 60, 6-[(2,4-difluorophenyl)sulfinyl]-3-isopropyl[1,2,4]triazolo[4,3-a]pyridine]
23 | 7.8 | COC(=O)c1ccc(C)c(-c2nnc3ccc(Sc4ccc(F)cc4F)cn23)c1 [41 (step 3), methyl 3-{6-[(2,4-difluorophenyl)thio][1,2,4]triazolo[4,3-a]pyridin-3-yl}-4-methylbenzoate]
24 | 2500 | CC(C)c1nnc2ccc(Cc3ccc(F)cc3)cn12 [Example 69, 6-(4-fluorobenzyl)-3-isopropyl[1,2,4]triazolo[4,3-a]pyridine]
25 | 5590 | CC(C)c1nnc2n1CC(Cc1ccc(F)cc1F)CC2 (stereo not drawn) [Example 8, 6-(2,4-difluorobenzyl)-3-isopropyl-5,6,7,8-tetrahydro[1,2,4]triazolo[4,3-a]pyridine hydrochloride]
26 | 16.3 | C=CCC(C)(C)c1nnc2ccc(Sc3ccc(F)cc3F)cn12 [33 (step 2), 6-[(2,4-difluorophenyl)thio]-3-(1,1-dimethylbut-3-enyl)[1,2,4]triazolo[4,3-a]pyridine hydrochloride]
27 | 99100 | CC(C)C(=O)c1ccc2nnc(C(C)C)n2c1 [Example 71, 1-(3-isopropyl[1,2,4]triazolo[4,3-a]pyridin-6-yl)-2-methylpropan-1-one]
28 | 21600 | CC(C)(C)c1nnc2ccc(Cc3ccc(Cl)nc3)cn12 [Example 10, 3-tert-butyl-6-[(6-chloropyridin-3-yl)methyl][1,2,4]triazolo[4,3-a]pyridine]
29 | > 100000 | C=Cc1ccc2nnc(C(C)C)n2c1 [Example 56, 3-isopropyl-6-vinyl[1,2,4]triazolo[4,3-a]pyridine]
30 | 46.5 | Cc1ccc(C(=O)NCC(N)=O)cc1-c1nnc2ccc(Sc3ccc(F)cc3F)cn12 [Example 42, N-(3-{6-[(2,4-difluorophenyl)thio][1,2,4]triazolo[4,3-a]pyridin-3-yl}-4-methylbenzoyl)glycinamide]
31 | 6080 | CC(C)c1nnc2cc(Cl)c(Sc3ccc(F)cc3F)c(Br)n12 [Example 39, 5-bromo-7-chloro-6-[(2,4-difluorophenyl)thio]-3-isopropyl[1,2,4]triazolo[4,3-a]pyridine]
32 | 4.8 | CC(C)(C)c1nnc2ccc(Sc3ccc(F)cc3F)cn12 [Example 48, 3-tert-butyl-6-[(2,4-difluorophenyl)thio][1,2,4]triazolo[4,3-a]pyridine]
33 | > 100000 | O=C(O)c1ccc(-c2nnc3ccc(Cc4ccc(F)cc4F)cn23)cc1 [Example 59, 4-[6-(2,4-difluorobenzyl)[1,2,4]triazolo[4,3-a]pyridin-3-yl]benzoic acid]
